Each structure is given as a SMILES string.

Series [1] can be described thus: Plasma levels of TQS-168 after a single oral dose in wild-type mice. It is filed as in vivo, mouse. As to conditions: single 50 mg/kg dose. The method, then:
FIG. 2A plots plasma concentration of TQS-168 over time after a single oral dose of […] TQS-168 in mice. FIG. 2B is a timeline representative of the protocol of the SOD1 mouse study. Plasma levels of TQS-168 in wild-type mice were analyzed subsequently to a single 50 mg/kg dose of TQS-168.

The subject of series [2] is Ly6C^hi inflammatory monocytes. Nature of the series: Ex vivo LPS stimulation of wild-type mouse whole blood, FACS of Ly6C^hi cells. It is filed as cell-based. As to conditions: LPS stimulated, increasing concentrations of TQS-168, 5 hours at 37° C. The method, then:
Lipopolysaccharide (LPS) was used to induce circulating myeloid cells from wild type mice to adopt an inflammatory phenotype in vitro. […] As schematized in FIG. 1C, blood samples from wild-type mice were collected in EDTA tubes and stimulated with LPS. Whole blood was incubated at 37° C. with increasing concentrations of TQS-168 for 5 hours. Whole blood was lysed with lysis buffer from BD Bioscience for 10 minutes at 37C. Lysed blood was centrifuged at 500 g for 10 minutes. The supernatant was decanted, and cell pellet washed with Hank's balanced salt solution (HBSS). The cells were then centrifuged at 300 g for 10 minutes. They were subsequently resuspended in 2 mM EDTA FACS buffer. Fixed cells (100 μL) were washed with PBS. The cells (100 μL) were resuspended in PBS containing Zombie Aqua solution (Biolegend) at a 1:500 dilution. The cells were incubated in the dark at room temperature for 5 minutes. The cells were then washed with FACS buffer. The cells were stained with Cd11b, Ly6G, and Ly6C antibodies (BD Bioscience). The cells were then incubated with antibodies for 30 minutes. They were then washed with FACS buffer and then resuspended also in FACS buffer. Finally, the cells were acquired on flow cytometer.

Series [3] relates to plasma cytokines (IL-6, IL-10, TNFα, interferon gamma, CXCL5, etc.). In words: Plasma cytokines in SOD1 mice (48-plex Procarta panel). As to conditions: 50 mg/kg oral gavage every 3 days from Day 70 until day of euthanasia. It is filed as in vivo, mouse. The method, then: (§1) 60-day old transgenic mice overexpressing the human SOD1-G93A ALS-causing mutation (stock #002726) and wild-type mice (WT; C57BL/6J) were obtained from the Jackson Labs. Oral dosing by gavage started at 70 days of age. SOD1 mice received either TQS-168 50 mg/kg every 3 days or vehicle (same volume and frequency). The staff that dosed and assessed the mice were blinded to treatment allocation. Blood samples were collected in EDTA tubes at 2 time points: 90 days of age and time of euthanasia. Blood samples were processed for flow cytometry and plasma cytokine analysis. Flow cytometry methods employed are the same as those employed in Example 1 and Example 2.
Blood samples were collected from SOD1 mice at Day 90 and time of euthanasia. Plasma samples were assayed using the 48-plex Procarta panel (Thermo Fisher).

Series [4] has as its system Ppargc1α (PGC-1α) expression. As to conditions: direct molecular binding partner unknown; cited from earlier work.
The test system of series [5] is Ly6C^hi inflammatory monocytes in SOD1-G93A mice. In words: Fraction of inflammatory monocytes in SOD1 mice (flow cytometry of blood). It is filed as in vivo, mouse. To be noted: 50 mg/kg oral gavage every 3 days from Day 70 until Day 90.
From the text: as §1, with “The SOD1-G93A transgenic mouse has proven to be a useful tool in the study of ALS. A large majority of […] in the Superoxide dismutase 1 gene. SOD1-G93A mice express human SOD1 with the G93A mutation under control of the human SOD1 promoter. The mice show a phenotype similar to Amyotrophic Lateral Sclerosis in humans. 60-day” for “60-day”
Background: A flow cytometer gives signals particle by particle.

For series [6], the system named is CD14+CD16+ monocytes. Nature of the series: Four-hour ex vivo incubation of whole blood of ALS patients, FACS of CD14+CD16+ monocytes. It is filed as cell-based, human. As to conditions: 4-hour ex vivo incubation. The method, then:
Whole blood samples from patients with ALS were shipped at room temperature. The percentage of CD14+CD16+ monocytes were determined by fluorescence activated cell sorting (FACS). Briefly, whole blood was lysed with lysis buffer (BD Bioscience) for 10 minutes at 37° C. Lysed blood was centrifuged at 500 g for 10 min. Supernatant was decanted and the cell pellet washed with HBSS (Hank's balanced salt solution). Cells were centrifuged at 300 g for 10 min. Cells were resuspended in FACS buffer (PBS+2% FBS[…]). Fixed cells (100 μL) were washed with PBS. Cells (100 μL) were resuspended in PBS containing Zombie Aqua (Biolegend; 1:500 dilution). Cells were incubated in the dark at room temperature for 5 minutes. Cells were washed with FACS buffer. Cells were stained with 5 μL CD16 and 5 μL CD14 antibodies (BD Bioscience). Cells were incubated with antibodies for 30 minutes. Cells were washed with FACS buffer. Cells were resuspended in FACS buffer. Cells were acquired on a flow cytometer. FIG. 5B outlines the experimental protocol for assessing the effects of ex vivo incubation with TQS-168 on the inflammatory phenotype of circulating myeloid cells in peripheral blood samples of ALS patients. Samples were obtained from iSpecimen (Lexington, MA) and BioIVT (Westbury, NY). Blood samples were processed within 36 hours of collection and were never frozen. […]

Series [7] relates to SOD1-G93A mice. Nature of the series: Survival in SOD1 mice (time from birth to euthanasia, righting reflex). It is filed as in vivo, mouse. The method, then: 60-day old transgenic mice overexpressing the human SOD1-G93A ALS-causing mutation (stock #002726) were obtained from the Jackson Labs. Dosing started at 70 days of age. SOD1 mice received either TQS-168 50 mg/kg every 3 days or vehicle (same volume and frequency) by oral gavage. The righting reflex (ability to turn over when place on their backs) was assessed every 3 days when mice were <110 days old and every day after age 110 days. Mice were euthanized if they could not right themselves in 20 seconds after being placed onto their back. Time from birth to euthanasia was calculated for each mouse and compared in the two groups.

The subject of series [8] is SOD1-G93A mice. To be noted: SOD1 mouse model; cited from earlier work.

On to `CC(C)(C)c1ccc(-c2nc3ccccc3[nH]2)cc1` [TQS-168, 2-(4-tert-butylphenyl)-1H-benzimidazole], for which, in series [1], the “oral bioavailability (plasma levels)” value is on record as “orally bioavailable”. In series [2], the “LPS-induced increase in percentage of Ly6C^hi inflammatory monocytes” value was “inhibits the LPS-induced increase in Ly6C^hi monocytes”. In addition, the “increase in plasma cytokines from Day 90 to day of euthanasia” value in series [3] was “inhibited this increase in plasma cytokines”. Further, the “effect on Ppargc1α (PGC-1α) expression” value in series [4] is recorded as “activator of Ppargc1α (PGC-1α) expression”. In series [5], the “increase in circulating Ly6C^hi monocytes in SOD1 mice” value is on record as “inhibited the increase in circulating Ly6C^hi monocytes”. The “percentage of CD14+CD16+ monocytes after incubation” value in series [6] (30 μM, from 1.5% without compound) is recorded as “less than 1%”. In series [6], the “change in percentage of intermediate (CD14+CD16+) monocytes with increasing concentrations” value is “dose-dependent decrease”. For the same molecule, in series [7] (50 mg/kg oral gavage every 3 days), the “survival compared with vehicle” value is reported as “survived longer”. In series [7] (50 mg/kg oral gavage every 3 days from 70 days of age), this molecule yielded a median survival of 135 days. For the same molecule, in series [7] (50 mg/kg oral gavage every 3 days, vehicle 129), the “difference in median survival versus vehicle” value turned out to be 6 days.

Take `CC1=NN(c2ccccc2)C(=O)C1` [edaravone]: in series [8], the “survival benefit in the SOD1 model (approved ALS treatments)” value was “failed to display survival benefits”.

Values taken from patent US20250009714A1, “SELECTION AND TREATMENT OF SUBJECTS HAVING A CIRCULATING MYELOID CELL INFLAMMATORY PHENOTYPE” (Tranquis Therapeutics, Inc., priority 2021, published 2025).
